Assay results published in patent EP3183253B1, “SALT OF (R)-3-(4-(7H-PYRROLO [2,3-D]PYRIMIDIN-4-YL)-LH-PYRAZOL-L-YL)-3-CYCLOPENTYLPROPANENITRILE WITH BENZENESULFONIC ACID” (ratiopharm GmbH, priority 2014, dated 2016).

How the values were obtained:
Type in all cases: physicochemical
[1] = pH-dependency of solubility at 37°C; conditions: for solubility: 37°C
Excerpt: The intestinal tract obeys different pH ranges, which vary from pH 1 to 2 of the empty stomach, pH 3-5 for stomach filled with chyme, to pH 5-7.5 of the colon.

[2] = Dynamic vapor sorption experiment (hygroscopicity); conditions: 25°C, reducing humidity to 0% and increasing to 40%
Procedure: Vapour sorption experiments were performed in the instrument SPSx-1µ (Projekt Messtechnik, Ulm, Germany) at temperature of 25°C and the humidity cycles as shown below.
A dynamic vapor sorption experiment was performed with Ruxolitinib besylate. At a constant temperature of 25°C, the substance was exposed to two cycles of varying relative humidity (rh) (40% → 0% →95% (75% r.h. kept constant for 48h) → 0% →40%). Figure 3a presents the relative weight change as a function of time and relative humidity and in […] changes are illustrated as a function of humidity.

[3] = Storage stability: chemical purity by HPLC/UV; conditions: for Chemical purity ([area-%] at λ=230 nm): 40°C/75% rh
Procedure: (§1) Samples were stored in closed and open containers at 25°C/60% rh and at 40°C/75% rh and analyzed after 4, 8 and 12 weeks.
The results of determination of the chemical purity during storage at 40°C/75% rh are summarized. […] Therefore, the analysis of samples, which were stored at 25°C/60% rh, was omitted.

[4] = Storage stability: solid-state stability by XRPD analysis
Procedure: The sample was analyzed on a D8 Advance X-ray powder diffractometer (Bruker-AXS, Karlsruhe, Germany). The sample holder was rotated in a plane parallel to its surface at 20 rpm during the measurement. The raw data were analyzed with the program EVA (Bruker-AXS, Germany). The samples were layered onto a silicon specimen holder.
as §1
The solid-state stability was investigated by XRPD analysis for 25°C/60% rh. The results of evaluation are summarized.

## N#CC[C@H](C1CCCC1)n1cc(-c2ncnc3[nH]ccc23)cn1 [Ruxolitinib besylate, Ruxolitinib benzenesulfonate]
[1]; 0.1m hcl, pH 1.2, 37°C, 0.1M HCl pH1.2, 0.5 h
  solubility at 0.5 h: 9600 µg/mL
[1]; 0.1m hcl, pH 1.2, 37°C, 0.1M HCl pH1.2, 1 h
  solubility at 1 h: 9600 µg/mL
[1]; 0.1m hcl, pH 1.2, 37°C, 0.1M HCl pH1.2, 24 h
  solubility at 24 h: 9300 µg/mL
[1]; 20mm naoac, pH 4.5, 37°C, 20mM (NaOAc / NaAc) -pH 4.5, 1 h
  solubility at 1 h: 7100 µg/mL
[1]; 20mM (NaOAc / NaAc) -pH 4.5, 0.5 h
  solubility: 6700 µg/mL
[1]; 20mM (NaOAc / NaAc) -pH 4.5, 24 h
  solubility: 6100 µg/mL
[1]; 50mM KH2PO4 pH 6.8, 24 h
  solubility: 5800 µg/mL
[1]; 50mm kh2po4, pH 6.8, 37°C, 50mM KH2PO4 pH 6.8, 0.5 h
  solubility at 0.5 h: 6800 µg/mL
[1]; 50mm kh2po4, pH 6.8, 37°C, 50mM KH2PO4 pH 6.8, 1 h
  solubility at 1 h: 7000 µg/mL
[2]
  weight after desorption and re-sorption (in words): resulted in the initial starting weight
[3]; 40°C/75% rh, 4, 8 and 12 weeks
  chemical stability during storage (in words): remained chemically stable
[3]; closed container, 4 weeks
  Chemical purity ([area-%] at λ=230 nm): 98.14% area-%
[3]; closed container, 8 weeks
  Chemical purity ([area-%] at λ=230 nm): 98.27% area-%
[3]; closed container, 12 weeks
  Chemical purity ([area-%] at λ=230 nm): 98.06% area-%
[3]; closed container, t = 00 (= initial)
  Chemical purity ([area-%] at λ=230 nm): 98.16 area-%
[3]; open container, 4 weeks
  Chemical purity ([area-%] at λ=230 nm): 98.16% area-%
[3]; open container, 8 weeks
  Chemical purity ([area-%] at λ=230 nm): 98.21% area-%
[3]; open container, 12 weeks
  Chemical purity ([area-%] at λ=230 nm): 98.22% area-%
[3]; open container, t = 00 (= initial)
  Chemical purity ([area-%] at λ=230 nm): 98.16 area-%
[4]; 25°C and 60% relative humidity (RH), up to at least 12 weeks
  stability upon storage (in words): stable
[4]; 25°C/60% rh, throughout the observation period
  solid-state stability by XRPD (in words): remained unchanged
